Test results published in ChEMBL document CHEMBL3885861, “Open TG-GATES”.

Species on record: Rattus norvegicus
Experiment: Open TG-GATES - Regimen: Daily Repeat
Type: toxicity, organism-based, Sprague-Dawley
Parameters: regimen Daily Repeat, gender Male, age 6 weeks
Settings: in vivo, po, route gavage; for APTT / Bas / Eos / Fbg / Hb / Ht / Lym / MCH / MCHC / MCV / Mono / Neu / PT / Plat / RBC / Ret / WBC: tissue Blood; for KIDNEY_L / KIDNEY_R / KIDNEY_TOTAL: tissue Kidney; for LIVER: tissue Liver; for A/G / ALP / ALT / AST / BUN / CRE / Ca / Cl / DBIL / GLC / IP / K / LDH / Na / PL / RALB / TBIL / TC / TG / TP / gamma-GTP: tissue Plasma
[1] = 0 mg/kg, 72 h, dose level Control, time 3 day
[2] = 0 mg/kg, […], dose level Control, time 7 day
[3] = 0 mg/kg, […], dose level Control, time 14 day
[4] = 0 mg/kg, […], dose level Control, time 28 day
[5] = 30 mg/kg, 72 h, dose level Low, time 3 day
[6] = 30 mg/kg, […], dose level Low, time 7 day
[7] = 30 mg/kg, […], dose level Low, time 14 day
[8] = 30 mg/kg, […], dose level Low, time 28 day

## O=C(O)COc1nn(Cc2ccccc2)c2ccccc12 [BENDAZAC]
[1]
  TERMINAL_BW: 229.2 g
  APTT: 17.5 s
  Bas: 0%
  Eos: 1.2%
  Fbg: 223.2 mg/dL
  Hb: 14.2 g/dL
  Ht: 42.6%
  Lym: 77.2%
  MCH: 21.4 pg
  MCHC: 33.3%
  MCV: 64.4 fL
  Mono: 8.2%
  Neu: 13.8%
  PT: 11.6 s
  Plat: 120.1 x10_4/uL
  RBC: 661.6 x10_4/ul
  Ret: 6.5%
  WBC: 93.7 x10_2/uL
  KIDNEY_L: 1 g
  KIDNEY_R: 1 g
  KIDNEY_TOTAL: 2 g
  LIVER: 11.2 g
  A/G: 2.1
  ALP: 1059.4 IU/L
  ALT: 41.4 IU/L
  AST: 68.6 IU/L
  BUN: 16.6 mg/dL
  CRE: 0.5 mg/dL
  Ca: 10.9 mg/dL
  Cl: 103.4 meq/L
  DBIL: 0.022 mg/dL
  GLC: 206.8 mg/dL
  IP: 7.7 mg/dL
  K: 4.7 meq/L
  LDH: 101.4 IU/L
  Na: 139.8 meq/L
  PL: 162.8 mg/dL
  RALB: 3.9 g/dL
  TBIL: 0.3 mg/dL
  TC: 78.2 mg/dL
  TG: 127.8 mg/dL
  TP: 5.7 g/dL
  gamma-GTP: 1.2 IU/L
[2]
  TERMINAL_BW: 264.6 g
  APTT: 16.9 s
  Bas: 0%
  Eos: 0.8%
  Fbg: 228.6 mg/dL
  Hb: 14.1 g/dL
  Ht: 41.4%
  Lym: 80.8%
  MCH: 21.5 pg
  MCHC: 34.1%
  MCV: 63.2 fL
  Mono: 6%
  Neu: 12.6%
  PT: 11.5 s
  Plat: 128.1 x10_4/uL
  RBC: 657 x10_4/ul
  Ret: 5.1%
  WBC: 96.5 x10_2/uL
  KIDNEY_L: 1.1 g
  KIDNEY_R: 1.2 g
  KIDNEY_TOTAL: 2.3 g
  LIVER: 13.2 g
  A/G: 2
  ALP: 804.6 IU/L
  ALT: 30 IU/L
  AST: 60.8 IU/L
  BUN: 19.6 mg/dL
  CRE: 0.5 mg/dL
  Ca: 11.3 mg/dL
  Cl: 103.6 meq/L
  DBIL: 0.012 mg/dL
  GLC: 222.6 mg/dL
  IP: 8 mg/dL
  K: 4.8 meq/L
  LDH: 84.8 IU/L
  Na: 141.2 meq/L
  PL: 146.2 mg/dL
  RALB: 3.9 g/dL
  TBIL: 0.3 mg/dL
  TC: 70 mg/dL
  TG: 111 mg/dL
  TP: 5.8 g/dL
  gamma-GTP: 1 IU/L
[3]
  TERMINAL_BW: 318.4 g
  APTT: 17.2 s
  Bas: 0%
  Eos: 0.8%
  Fbg: 236 mg/dL
  Hb: 14.5 g/dL
  Ht: 43%
  Lym: 80.4%
  MCH: 21.2 pg
  MCHC: 33.8%
  MCV: 62.8 fL
  Mono: 7%
  Neu: 11.8%
  PT: 11 s
  Plat: 122.8 x10_4/uL
  RBC: 684.4 x10_4/ul
  Ret: 4.3%
  WBC: 120.8 x10_2/uL
  KIDNEY_L: 1.3 g
  KIDNEY_R: 1.3 g
  KIDNEY_TOTAL: 2.6 g
  LIVER: 15.1 g
  A/G: 1.6
  ALP: 749.8 IU/L
  ALT: 32 IU/L
  AST: 61.2 IU/L
  BUN: 18.2 mg/dL
  CRE: 0.5 mg/dL
  Ca: 10.4 mg/dL
  Cl: 105.4 meq/L
  DBIL: 0.006 mg/dL
  GLC: 197.2 mg/dL
  IP: 7.1 mg/dL
  K: 4.7 meq/L
  LDH: 102.2 IU/L
  Na: 141.2 meq/L
  PL: 158 mg/dL
  RALB: 3.8 g/dL
  TBIL: 0.3 mg/dL
  TC: 74.8 mg/dL
  TG: 153.2 mg/dL
  TP: 6.2 g/dL
  gamma-GTP: 2.4 IU/L
[4]
  TERMINAL_BW: 399.8 g
  APTT: 17.8 s
  Bas: 0%
  Eos: 1%
  Fbg: 219 mg/dL
  Hb: 15.5 g/dL
  Ht: 45.9%
  Lym: 83.6%
  MCH: 19.8 pg
  MCHC: 33.7%
  MCV: 58.8 fL
  Mono: 4.2%
  Neu: 11.4%
  PT: 11.7 s
  Plat: 115.9 x10_4/uL
  RBC: 779.8 x10_4/ul
  Ret: 3.5%
  WBC: 117.2 x10_2/uL
  KIDNEY_L: 1.4 g
  KIDNEY_R: 1.4 g
  KIDNEY_TOTAL: 2.8 g
  LIVER: 16.2 g
  A/G: 1.4
  ALP: 590.2 IU/L
  ALT: 33.2 IU/L
  AST: 64.4 IU/L
  BUN: 20 mg/dL
  CRE: 0.6 mg/dL
  Ca: 10 mg/dL
  Cl: 104.8 meq/L
  DBIL: 0.01 mg/dL
  GLC: 189.8 mg/dL
  IP: 6.4 mg/dL
  K: 4.4 meq/L
  LDH: 71.4 IU/L
  Na: 140.4 meq/L
  PL: 142.8 mg/dL
  RALB: 3.6 g/dL
  TBIL: 0.3 mg/dL
  TC: 71.2 mg/dL
  TG: 130 mg/dL
  TP: 6.2 g/dL
  gamma-GTP: 1.8 IU/L
[5]
  TERMINAL_BW: 236.5 g
  APTT: 17 s
  Bas: 0%
  Eos: 1.4%
  Fbg: 215.2 mg/dL
  Hb: 13.4 g/dL
  Ht: 40.6%
  Lym: 79.2%
  MCH: 21.1 pg
  MCHC: 33%
  MCV: 63.9 fL
  Mono: 6.6%
  Neu: 12.8%
  PT: 11.9 s
  Plat: 128 x10_4/uL
  RBC: 636 x10_4/ul
  Ret: 6.9%
  WBC: 98.4 x10_2/uL
  KIDNEY_L: 1 g
  KIDNEY_R: 1 g
  KIDNEY_TOTAL: 2.1 g
  LIVER: 11.9 g
  A/G: 2.2
  ALP: 891 IU/L
  ALT: 36.6 IU/L
  AST: 66.6 IU/L
  BUN: 17.2 mg/dL
  CRE: 0.6 mg/dL
  Ca: 11 mg/dL
  Cl: 103 meq/L
  DBIL: 0.018 mg/dL
  GLC: 205.2 mg/dL
  IP: 7.5 mg/dL
  K: 4.5 meq/L
  LDH: 128 IU/L
  Na: 140.4 meq/L
  PL: 149.8 mg/dL
  RALB: 3.9 g/dL
  TBIL: 0.4 mg/dL
  TC: 74.4 mg/dL
  TG: 99.6 mg/dL
  TP: 5.7 g/dL
  gamma-GTP: 0.8 IU/L
[6]
  TERMINAL_BW: 260.1 g
  APTT: 17.3 s
  Bas: 0%
  Eos: 1.2%
  Fbg: 214.6 mg/dL
  Hb: 14.1 g/dL
  Ht: 41.5%
  Lym: 78.4%
  MCH: 21.2 pg
  MCHC: 34%
  MCV: 62.4 fL
  Mono: 6.8%
  Neu: 14%
  PT: 11.7 s
  Plat: 131.9 x10_4/uL
  RBC: 665.6 x10_4/ul
  Ret: 6.1%
  WBC: 109.2 x10_2/uL
  KIDNEY_L: 1.1 g
  KIDNEY_R: 1.1 g
  KIDNEY_TOTAL: 2.2 g
  LIVER: 12.5 g
  A/G: 2.1
  ALP: 930 IU/L
  ALT: 32.8 IU/L
  AST: 68.4 IU/L
  BUN: 18.6 mg/dL
  CRE: 0.5 mg/dL
  Ca: 10.9 mg/dL
  Cl: 104.8 meq/L
  DBIL: 0 mg/dL
  GLC: 214.2 mg/dL
  IP: 7.2 mg/dL
  K: 4.5 meq/L
  LDH: 94.4 IU/L
  Na: 142 meq/L
  PL: 145.4 mg/dL
  RALB: 3.9 g/dL
  TBIL: 0.4 mg/dL
  TC: 72 mg/dL
  TG: 114.6 mg/dL
  TP: 5.7 g/dL
  gamma-GTP: 0.8 IU/L
[7]
  TERMINAL_BW: 298.7 g
  APTT: 17.1 s
  Bas: 0%
  Eos: 0.6%
  Fbg: 228.2 mg/dL
  Hb: 14.9 g/dL
  Ht: 44%
  Lym: 85.2%
  MCH: 20.6 pg
  MCHC: 33.8%
  MCV: 61 fL
  Mono: 3.4%
  Neu: 10.4%
  PT: 11 s
  Plat: 121.3 x10_4/uL
  RBC: 720.6 x10_4/ul
  Ret: 2.8%
  WBC: 112.1 x10_2/uL
  KIDNEY_L: 1.2 g
  KIDNEY_R: 1.2 g
  KIDNEY_TOTAL: 2.5 g
  LIVER: 13.5 g
  A/G: 1.7
  ALP: 683.4 IU/L
  ALT: 31.6 IU/L
  AST: 62.6 IU/L
  BUN: 18.4 mg/dL
  CRE: 0.5 mg/dL
  Ca: 10.5 mg/dL
  Cl: 105.8 meq/L
  DBIL: 0.03 mg/dL
  GLC: 185.4 mg/dL
  IP: 6.9 mg/dL
  K: 4.6 meq/L
  LDH: 131.8 IU/L
  Na: 140.8 meq/L
  PL: 154.2 mg/dL
  RALB: 3.8 g/dL
  TBIL: 0.3 mg/dL
  TC: 73.2 mg/dL
  TG: 125.8 mg/dL
  TP: 6 g/dL
  gamma-GTP: 1.4 IU/L
[8]
  TERMINAL_BW: 393.4 g
  APTT: 17.2 s
  Bas: 0%
  Eos: 1.2%
  Fbg: 217.6 mg/dL
  Hb: 15.4 g/dL
  Ht: 45.1%
  Lym: 77.4%
  MCH: 19.3 pg
  MCHC: 34.1%
  MCV: 56.7 fL
  Mono: 5.4%
  Neu: 15.4%
  PT: 12 s
  Plat: 119.3 x10_4/uL
  RBC: 796.6 x10_4/ul
  Ret: 2.3%
  WBC: 105.4 x10_2/uL
  KIDNEY_L: 1.5 g
  KIDNEY_R: 1.5 g
  KIDNEY_TOTAL: 2.9 g
  LIVER: 16.7 g
  A/G: 1.5
  ALP: 780.4 IU/L
  ALT: 30.4 IU/L
  AST: 62.4 IU/L
  BUN: 17.6 mg/dL
  CRE: 0.5 mg/dL
  Ca: 10 mg/dL
  Cl: 104.2 meq/L
  DBIL: 0.006 mg/dL
  GLC: 192.2 mg/dL
  IP: 6 mg/dL
  K: 4.4 meq/L
  LDH: 90 IU/L
  Na: 139.6 meq/L
  PL: 147.6 mg/dL
  RALB: 3.7 g/dL
  TBIL: 0.3 mg/dL
  TC: 68.2 mg/dL
  TG: 169 mg/dL
  TP: 6.3 g/dL
  gamma-GTP: 1.6 IU/L
